{"source": "ChEMBL document CHEMBL5528088", "about": "“Design and Synthesis of Cyclolipopeptide Mimics of Dysoxylactam A and Evaluation of the Reversing Potencies against P-Glycoprotein-Mediated Multidrug Resistance” (J Med Chem, 2024)", "data": [{"tested_on": "KBv200", "experiment": "Inhibition of cell proliferation in human KBv200 cells assessed as inhibition of VNR at 10 uM incubated for 72 hrs in presence of VNR by SRB assay relative to control", "assay_type": "functional", "units": {"inhibition at 10 µM": "%"}, "values": [{"smiles": "CCC[C@H]1COC(=O)[C@H](C(C)C)NC(=O)CCCCCCCC(=O)N1", "inhibition at 10 µM": 46.3}, {"smiles": "CC(C)C[C@H]1COC(=O)[C@H](C(C)C)NC(=O)CCCCCCCC(=O)N1", "inhibition at 10 µM": 48.9}, {"smiles": "CC(C)[C@@H]1NC(=O)CCCCCCCC(=O)N[C@@H](C(C)(C)C)COC1=O", "inhibition at 10 µM": 53.6}, {"smiles": "CC[C@H](C)[C@@H]1NC(=O)[C@H](C(C)C)NC(=O)CCCCCCCC(=O)NCCCCOC1=O", "inhibition at 10 µM": 54}, {"smiles": "CC(C)[C@@H]1NC(=O)CCCCCCCC(=O)N[C@@H](Cc2ccccc2)COC(=O)CCNC1=O", "inhibition at 10 µM": 12}, {"smiles": "CC[C@H](C)[C@@H]1NC(=O)[C@H](C(C)C)NC(=O)CCCCCCCC(=O)N[C@@H](C)COC1=O", "inhibition at 10 µM": 49}, {"smiles": "CC(C)C1NC(=O)CCCCCCCC(=O)N[C@@]23C[C@H]4C[C@@H](C2)C[C@](C4)(C3)OC1=O", "note": "(stereo not given in full)", "inhibition at 10 µM": 42.9}, {"smiles": "CC(C)[C@@H]1NC(=O)CCCCCCCC(=O)Nc2ccccc2COC1=O", "inhibition at 10 µM": 29.7}, {"smiles": "CC(C)[C@@H]1NC(=O)CCCCCCCC(=O)NCCCOC1=O", "inhibition at 10 µM": 15}, {"smiles": "CC(C)[C@@H]1NC(=O)CCCCCCCC(=O)N[C@@H](Cc2ccccc2)COC(=O)CNC1=O", "inhibition at 10 µM": 11}, {"smiles": "CC(C)[C@@H]1NC(=O)CCCCCCCC(=O)NCC(C)(C)COC1=O", "inhibition at 10 µM": 38.8}, {"smiles": "CC(C)[C@@H]1NC(=O)CCCCCCCC(=O)N[C@@H](Cc2ccccc2)COC(=O)Cc2ccc(cc2)NC1=O", "inhibition at 10 µM": 35.9}, {"smiles": "CC(C)[C@@H]1NC(=O)CCCCCCCC(=O)N[C@@H](c2ccccc2)[C@@H](c2ccccc2)OC1=O", "inhibition at 10 µM": 14.1}, {"smiles": "CC[C@H](C)[C@@H]1NC(=O)[C@H](C(C)C)NC(=O)CCCCCC(=O)Nc2cccc(c2)COC1=O", "inhibition at 10 µM": 14.5}, {"smiles": "CC[C@H](C)[C@H]1COC(=O)[C@H](C(C)C)NC(=O)CCCCCCCC(=O)N1", "inhibition at 10 µM": 51.2}, {"smiles": "CC[C@H](C)[C@@H]1NC(=O)[C@H](C(C)C)NC(=O)CCCCCC(=O)N[C@@H](Cc2ccccc2)COC1=O", "inhibition at 10 µM": 25.7}, {"smiles": "CC(C)[C@@H]1NC(=O)CCCCCCCC(=O)NCCCCCCOC1=O", "inhibition at 10 µM": 21.1}, {"smiles": "CC(C)[C@@H]1NC(=O)CCCCCCCC(=O)NCCOC1=O", "inhibition at 10 µM": 9.5}, {"smiles": "CC(C)[C@@H]1NC(=O)CCCCCCCC(=O)N[C@@H](Cc2ccccc2)COC(=O)CCCNC1=O", "inhibition at 10 µM": 26.8}, {"smiles": "CC[C@H](C)[C@@H]1NC(=O)[C@H](C(C)C)NC(=O)CCCCCCCC(=O)NCCOC1=O", "inhibition at 10 µM": 51.1}, {"smiles": "CC[C@H](C)[C@@H]1NC(=O)[C@H](C(C)C)NC(=O)CCCCCCCC(=O)NCCCOC1=O", "inhibition at 10 µM": 44.8}, {"smiles": "CSCC[C@H]1COC(=O)[C@H](C(C)C)NC(=O)CCCCCCCC(=O)N1", "inhibition at 10 µM": 34}, {"smiles": "CC(C)[C@@H]1NC(=O)CCCCCCCC(=O)NCCCCCOC1=O", "inhibition at 10 µM": 26.6}, {"smiles": "CC(C)[C@@H]1NC(=O)CCCCCCCC(=O)N[C@@H](C)COC1=O", "inhibition at 10 µM": 20.7}, {"smiles": "CC(C)[C@@H]1NC(=O)CCCCCCCC(=O)Nc2ccccc2OC1=O", "inhibition at 10 µM": 14.5}, {"smiles": "CC[C@H](C)[C@@H]1NC(=O)[C@H](C(C)C)NC(=O)CCCCCCC(=O)N[C@@H](Cc2ccccc2)COC1=O", "inhibition at 10 µM": 28.7}, {"smiles": "CC(C)[C@@H]1NC(=O)CCCCCCCC(=O)N[C@@H](Cc2ccccc2)COC(=O)[C@H](C)NC1=O", "inhibition at 10 µM": 55.5}, {"smiles": "CC(C)[C@@H]1NC(=O)CCCCCCCC(=O)Nc2cccc(c2)OC1=O", "inhibition at 10 µM": 12.8}, {"smiles": "CC(C)[C@@H]1NC(=O)CCCCCCCC(=O)N[C@H](c2ccccc2)CCOC1=O", "inhibition at 10 µM": 30.1}, {"smiles": "CC(C)[C@@H]1NC(=O)CCCCCC(=O)N[C@@H](Cc2ccccc2)COC1=O", "inhibition at 10 µM": 42.6}, {"smiles": "CC(C)[C@@H]1NC(=O)CCCCCCCC(=O)NC(C)(C)CCOC1=O", "inhibition at 10 µM": 23.1}, {"smiles": "CC(C)[C@@H]1NC(=O)CCCCCCCC(=O)N[C@H]2[C@@H]3C[C@@H]4C[C@H]2C[C@@](C4)(C3)OC1=O", "inhibition at 10 µM": 14.1}, {"smiles": "CC(C)[C@@H]1NC(=O)CCOCCOCCOCCC(=O)N[C@@H](Cc2ccccc2)COC1=O", "inhibition at 10 µM": 0.3}, {"smiles": "CC(C)[C@@H]1NC(=O)CCCCCCCC(=O)Nc2cccc(c2)COC1=O", "inhibition at 10 µM": 13.1}, {"smiles": "CC(C)[C@@H]1NC(=O)CCCCCCC(=O)N[C@@H](Cc2ccccc2)COC1=O", "inhibition at 10 µM": 9.3}]}]}
